Activity calls are given as the source filed them.
Legend:
fMet-Leu-Phe receptor = fMet-Leu-Phe receptor (Homo sapiens, UniProt P21462); assay: FPR ligands, dose response (AID 519); format: functional
Major prion protein = Major prion protein (Homo sapiens, UniProt P04156); format: functional, cell-based
[1] = microbe, parasite or virus in culture; format: functional; conditions: Mycobacterium tuberculosis
Beta-lactamase [2] = target: Beta-lactamase (Pseudomonas aeruginosa, UniProt Q79MP6);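 note: biochemical dose-response test of metallo-beta-lactamase enzyme inhibition, read out by epi-absorbance; purified recombinant IMP-1 metallo-beta-lactamase with nitrocefin as substrate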
[3] = Luminescence Cell-Based Dose Response HTS to Identify Inhibitors of 5'UTR Stem-Loop Driven Prion Protein mRNA Translation in H4 Neuroglioblastoma Cells. [Related pubchem assays: 1827 (Project Summary), 1813 (Primary HTS)]; format: functional
Beta-lactamase [4] = target: Beta-lactamase (Salmonella choleraesuis (strain SC-B67), UniProt Q5J463)
cells [5] = assay: cells
[6] = inhibitors of SNCA 5'UTR-driven reporter translation, confirmation, H4 neuroglioma cells, luminescence (AID 1988); format: functional, cell-based
[7] = inhibitors of firefly luciferase expression or activity, dose response, H4 neuroglioma cells, luminescence (AID 1990); format: functional, cell-based
INS1 = assay: beta cell apoptosis inhibitors, cytokine rescue, dose response, luminescence, retest (AID 449756); format: functional, cell-based; conditions: Rattus norvegicus;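 note: cell death triggered by IL-1 beta plus TNF-alpha plus IFN-gamma mixture; protective hits raise ATP signal compared with cytokine alone wells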
[8] = target: T1, Oxysterols receptor LXR-beta (Homo sapiens, UniProt P55055); format: functional, cell-based;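 note: agonist activity at LXR measured by a cell-based luminescence readout across a dose range, run as a counterscreen for daf-12 agonists; HEK293 cells with Gal4-LXR fusion and GAL4-driven luciferase reporter; potency for activation of Gal4-LXR reporter so compounds are agonists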
T1 sequence (P55055 whole entry): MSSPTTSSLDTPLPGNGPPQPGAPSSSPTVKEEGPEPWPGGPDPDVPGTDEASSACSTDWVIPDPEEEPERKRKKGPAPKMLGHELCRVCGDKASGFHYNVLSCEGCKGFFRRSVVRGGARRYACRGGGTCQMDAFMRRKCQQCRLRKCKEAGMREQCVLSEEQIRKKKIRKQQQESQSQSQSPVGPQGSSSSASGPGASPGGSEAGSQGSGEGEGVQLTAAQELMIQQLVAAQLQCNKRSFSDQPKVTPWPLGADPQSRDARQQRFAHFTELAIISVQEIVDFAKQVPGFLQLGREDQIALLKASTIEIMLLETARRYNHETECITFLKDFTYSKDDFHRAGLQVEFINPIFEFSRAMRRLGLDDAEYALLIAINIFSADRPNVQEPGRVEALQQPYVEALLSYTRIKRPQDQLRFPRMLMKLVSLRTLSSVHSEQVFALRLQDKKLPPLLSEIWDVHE

[9] = cytotoxicity toward DRD oncogenic fibroblasts, dose response, cell-based, non-viral oncogenic, luminescence (AID 1934); format: functional; conditions: Homo sapiens
BJ [10] = assay: cells; format: functional, cell-based; conditions: Homo sapiens
cells [11] = conditions: A549
BJ [12] = assay: cytotoxicity toward BJ-TERT-LT-ST fibroblasts, dose response, cell-based, RAS-independent, luminescence (AID 1935); format: functional; conditions: Homo sapiens;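 note: BJ fibroblasts immortalized with TERT plus LT and ST oncogenes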
BJ [13] = assay: cytotoxicity toward BJ-TERT fibroblasts, dose response, cell-based, RAS-independent, luminescence (AID 1933); format: functional; conditions: Homo sapiens
cells [14] = conditions: HEK293;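 note: cells exposed to compound for 48 hours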
[15] = human group III sPLA2 inhibitors, dose response, biochemical, QFRET, IC50 (AID 743457);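 note: green fluorescence rise as the enzyme cleaves BODIPY PC-A2 in liposomes; potency for inhibition of the enzyme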
Streptococcus = assay: Group A Streptococcus viability loss, dose response, counter-screen for streptokinase expression inhibitor project, luminescence, BacTiterGlo (AID 1915); format: functional, organism-based;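 note: potency for reduction of bacterial viability or growth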
[16] = test system: Streptococcus sp. 'group A'; assay: growth inhibition of control SK(-) GAS strain, dose response, counter-screen for streptokinase expression inhibitor project, luminescence, kanamycin, BacTiterGlo, confirmation (AID 1900); format: functional, organism-based
[17] = NIH-3T3 fibroblast cytotoxicity, dose response, cytotoxicity control, cell-based, fluorescence, Alamar Blue, secondary assay (AID 2327); format: functional;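 note: NIH-3T3 mouse fibroblasts cultured with fluconazole at 8 µg/mL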
Paired box protein Pax-8 = Paired box protein Pax-8 (Homo sapiens, UniProt Q06710); assay: inhibitors of PAX8-driven TPO luciferase reporter, dose response, RMG-I cells, cherry-pick (AID 687027); format: functional, cell-based;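 note: luciferase reporter driven by Pax8 target thyroperoxidase promoter measured by SteadyGlo luminescence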
[18] = C. albicans growth with fluconazole, confirmation, fluorescence, retest (AID 2467); format: functional, cell-based
[19] = inhibitors of CMV-promoter luciferase reporter, dose response, counter-screen for Pax8 inhibitor project, cell-based, HEK293, luminescence, dry powder (AID 743020); format: functional
[20] = target: ATP-dependent molecular chaperone HSP82 (Candida albicans (strain WO-1) (Yeast), UniProt C4YTQ8); assay: loss of DOC-induced GRE-beta-galactosidase reporter signal, dose response, Hsp90 inhibitor project, S. cerevisiae, luminescence (AID 2400); format: functional, cell-based;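 note: beta-galactosidase luminescence from glucocorticoid response element reporter as proxy for Hsp90 function; inhibitor potency where signal loss means Hsp90 inhibition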
[21] = target: Serine/threonine-protein phosphatase (Candida dubliniensis (strain CD36 / CBS 7987 / NCPF 3949 / NRRLY-17841) (Yeast), UniProt B9W6M3); assay: calcineurin pathway inhibitors in yeast reporter, dose response, S. cerevisiae, CDRE-lacZ, luminescence, secondary (AID 2388); format: functional, cell-based;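 note: yeast reporter cells carrying a calcineurin-responsive lacZ construct stimulated with calcium chloride; luminescent beta-galactosidase reporter signal in whole cells rather than isolated phosphatase activity; potency for inhibition where a drop in reporter signal means calcineurin blockade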
[22] = target: Potassium channel subfamily K member 9 (Homo sapiens, UniProt Q9NPC2); assay: TASK3 (KCNK9) channel inhibitors, thallium flux, SAR follow-up, selectivity assay for TASK1 inhibitor project, cell-based, FluxOR thallium flux, concentration-response (AID 652211); format: functional;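 note: potency is for inhibitors of the channel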
[23] = target: Potassium channel subfamily K member 3 (Rattus norvegicus, UniProt O54912); assay: SAR analysis for the identification of selective inhibitors of the two-pore domain potassium channel TASK1(KCNK3):Automated Electrophysiology.; format: functional
[24] = target: Potassium channel subfamily K member 3 (Homo sapiens, UniProt O14649); assay: TASK1 (KCNK3) potassium channel inhibitors, SAR follow-up, CHO cells, FluxOR thallium flux (AID 652212); format: functional
[25] = ADAM10 protease inhibitors, dose response, selectivity assay for ADAM17 exosite inhibitor project, biochemical, FRET peptide substrate, recombinant human ADAM10 (AID 743259);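 note: ADAM10 enzyme cleaving a FRET peptide substrate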
[26] = target: Disintegrin and metalloproteinase domain-containing protein 17 (Homo sapiens, UniProt P78536); assay: exosite inhibitors of ADAM17, dose response, biochemical (AID 743260)
[27] = miR-122 activators in hepatoma reporter cells, dose response, cell-based, Huh7 psiCHECK-miR122, Renilla luciferase, cherry-picked (AID 651956); format: functional;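 note: huh7 hepatoma cells stably carrying a psiCHECK-2 miR-122 sensor plasmid; renilla luciferase signal reporting endogenous miR-122 activity after 48 h compound exposure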
[28] = HEK293T cytotoxicity, dose response, cytotoxicity control for miR-122 modulator project, cell-based, activator set, cherry-pick (AID 720690); format: functional;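 note: HEK293T human cells scored for general mammalian cytotoxicity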
[29] = HEK293T cytotoxicity, dose response, cytotoxicity control for miR-122 modulator project, cell-based, inhibitor set, cherry-pick, set 2 (AID 720697); format: functional
[30] = HEK293 Cytotoxicity Assay Measured in Cell-Based System Using Plate Reader - 7071-01_Inhibitor_Dose_CherryPick_Activity_Set2.; format: functional
HEK293 = assay: HEK293T cell cytotoxicity, dose response, cytotoxicity control, ATP luminescence, cherry-pick samples (AID 687005); format: functional, cell-based; conditions: Homo sapiens;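 note: cells exposed to compound for 48 hours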

Compound: CCOc1cccc(C(=O)C2=C(O)C(=O)N(Cc3cccnc3)C2c2ccco2)c1 (stereo unspecified)
- Ki (fMet-Leu-Phe receptor): > 66.7 µM (inactive)

Compound: CCOc1ccc(-c2cc(C(=O)NCCCn3ccnc3)c3cc(Br)ccc3n2)cc1
- IC50 (Major prion protein): 4.38 µM (active)
- CC50 [1]: 16.7 µM (active)
- IC50 (Beta-lactamase [2]): > 59.6 µM (inactive)
- EC50 [3]: > 120 µM (not active)
- IC50 (Beta-lactamase [4]): > 59.6 µM (inactive)
- IC50 (cells [5]): 23.5 µM (inactive)
- EC50 [6]: > 120 µM (not active)
- EC50 [7]: > 120 µM (not active)
- AC50 (INS1): 9.7 µM (active)

Compound: Cc1cccc(C(=N)NOC(=O)c2ccco2)c1
- EC50 [8]: > 67.6 µM (inactive)

Compound: CN(C)C(=O)CSc1nc2cc(C(=O)c3ccccc3)ccc2[nH]1
- EC50 [9]: > 150 µM (not active)
- EC50 (BJ [10]): 14.3 µM (inconclusive)
- AC50 (cells [11]): 35.9 µM (active)
- EC50 (BJ [12]): > 150 µM (inconclusive)
- EC50 (BJ [13]): > 150 µM (not active)
- AC50 (cells [14]): 29.9 µM (active)

Compound: O=C(/C=C/c1cccs1)NC(=S)NNC(=O)Cc1cccs1
- IC50 [15]: 37 µM (inactive)
- EC50 (Streptococcus): 5.99 µM (active)
- EC50 [16]: 2.01 µM (active)

Compound: O=C(CCS(=O)(=O)c1ccc(Cl)cc1)Nc1nc(-c2ccncc2)cs1
- EC50 [17]: 27.9 µM (active)
- AC50 (Paired box protein Pax-8): 8.17 µM (active)
- EC50 [18]: 5.04 µM (active)
- AC50 [19]: < 3.35 µM (active)
- EC50 [20]: > 150 µM (inactive)
- EC50 [21]: > 180 µM (inactive)

Compound: CCOc1ccccc1NC(=O)c1cccc(NC(=O)C2CCCC2)c1
- IC50 [22]: 1.84 µM (active)
- IC50 [23]: 0.123 µM (active)
- IC50 [24]: 0.054 µM (active)

Compound: COc1ccc(NC(=O)Nc2ccc3c(c2)C(=O)N([C@@H](C)CO)C[C@@H](C)[C@@H](CN(C)S(=O)(=O)c2cccs2)O3)cc1
- IC50 [25]: > 7.72 µM (active)
- IC50 [26]: > 69.5 µM (inactive)

Compound: C[C@@H]1CCCCO[C@@H](CN(C)CC2CCCCC2)[C@@H](C)CN([C@@H](C)CO)C(=O)c2cc(NC(=O)Nc3cccc4ccccc34)ccc2O1
- AC50 [27]: 10.4 µM (active)
- AC50 [28]: 14.6 µM (active)
- AC50 [29]: 8.05 µM (active)

Compound: CN1[C@@H]2c3ccc(-c4cccnc4)c(=O)n3C[C@@H]2[C@@H](CO)[C@@H]1C(=O)N1CCc2ccccc2C1
- AC50 [30]: > 52 µM (inactive)
- AC50 (HEK293): > 52 µM (inactive)
